Laboratory results published in patent publication US20030143165A1, “NSAID-containing topical formulations that demonstrate chemopreventive activity” (priority 2002, published 2003).

What was measured:
[1] = tested on: SKH-1 mice (hairless mice); test: UV light-induced skin carcinogenesis (papillomas/tumours) in hairless mice, topical treatment for 28 weeks; assay type: in vivo; conditions: for animals that had developed at least one tumour at the end of the study: week 28
Procedure: In a first laboratory experiment performed, female SKH-1 mice (hairless mice) were purchased from the Animal Resource Service of Murdoch University, Western Australia, at approximately 3-4 weeks of age. Upon arrival at the Applicants' laboratory, the mice were housed in climate-controlled quarters (22±1° C. at 50% humidity) with a 12-hour light/dark cycle in yellow fluorescent lighting. All animals were allowed free access to rodent diet and water. The experimental protocol and all procedures were approved by CSIRO Health Sciences and Nutrition Animal Experimental Ethics Committee and followed the Australian Code of Practice for the care and use of animals for scientific purposes. The animals were observed daily during the period of UV light exposure. Individual body weights were determined twice weekly throughout the whole study period of 28 weeks.
Racemic flurbiprofen (“RS-FB”), used as the chemopreventive NSAID in this experiment, was purchased from Sigma Chemical Company (Sydney, Australia). Several topical formulation solutions were prepared by dissolving RS-FB in 70% ethanol (in water) as the carrier medium to achieve final RS-FB concentrations of 0.5, 1.0, 2.0 and 3.0% w/v. The drug solutions were prepared every two weeks throughout the whole study period.
The SKH-1 mice were divided into 5 treatment groups of 30 animals each. […] Within each treatment group, the animals were further divided into 2 subgroups of 15 animals. One subgroup was treated with vehicle or RS-FB solution one hour before the UV light exposure. The other subgroup was exposed to the UV light one hour before the application of vehicle or the allocated RS-FB solution. The solutions were applied topically to the dorsal area of the animals, in a volume of approximately 50-125 μl per application, using cotton tips.
Simulated solar irradiation was provided by an array of 6 UV-A tubes (Sylvania F40BL) symmetrically housed around a single UV-B tube (Philips FL 40SE) in a custom-built unit. As the skin of the animals progressively thickened, the time of exposure to reach 1 minimal erythematous dose (MED) was increased from 7 minutes per day to 10 minutes per day, 5 days a week. The integrated UV-B irradiance (280-320 nm) was 2.4×10^−4 W/cm^2, and the UV-A (320-400 nm) was 1.8×10^−3 W/cm^2 as measured with a model IL 1700 spectro-radiometer (International Light, Newburyport, Mass.). During treatment, the mice in each group were placed in separate open plastic cages in the UV housing unit. […] Treatment in this manner was continued for 28 weeks.
The development of skin cancer was assessed as the visible appearance of papillomas, which subsequently developed, in a subset of cases, to tumours. Weekly papilloma and tumour counts were performed after the appearance of the first papilloma and were continued until the termination of the experiment (week 28). The diameters of papillomas and tumours were measured and their locations noted. Data was recorded representing the number of (a) papillomas, (b) tumours and (c) papillomas plus tumours per animal. While the natural progression is from papilloma to tumour, it will be appreciated by those skilled in the art that, in some cases, the distinction between a papilloma and a tumour could not be made unequivocally. The data was analysed taking this into account. The appearance of the skin lesions was expressed progressively as incidence (percentage of mice bearing at least one papilloma/tumour) and yield (average number of papillomas/tumours per mouse) as well as burden (area of skin affected at the end of study).
Analysis of variance (ANOVA) was used to determine whether RS-FB administration caused a statistically significant change in the appearance and yield of papilloma/tumours in comparison with the control (vehicle group). Comparisons between groups was performed using the Scheffe method. Significance was concluded when P<0.05.

[2] = tested on: non-pigmented human skin cancer cell line MM96L; test: in vitro proliferation (MTS colorimetric assay) and apoptosis of human skin cancer cell line; assay type: cell-based; conditions: for effect on proliferation rate (FIG. 4): 24 hours exposure, MTS assay; for apoptosis: DNA fragmentation, acridine orange staining, flow cytometry
Source text: FIG. 4 is a chart that graphically presents laboratory experiment test data regarding the relative effect of racemic flurbiprofen to its individual enantiomers, R-flurbiprofen flurbiprofen (“R-FB”) and S-flurbipofen (“S-FB”), on the in vitro proliferation of a cancerous human skin cell line. For the underlying experiment, the non-pigmented human skin cancer cell line M[…] was studied in vitro utilizing the MTS colorimetric assay to assess cell proliferation. DNA fragmentation assays, acridine orange staining and flow cytometry were also utilized to assess apoptosis and cell cycle effects. […] An important finding was that there was no difference between the enantiomers of flurbiprofen in their anti-proliferative potency, despite the fact that only the S-isomer was capable of reducing COX activity.

cyclooxygenase (COX) = conditions: cited from earlier work
human skin cells = test: anti-proliferative effects of other NSAIDs on human skin cells; assay type: cell-based; conditions: range depends on duration of exposure, read-out: IC50 (concentration required to inhibit cell proliferation by 50%)
Source text: FIG. 4 is a chart that graphically presents laboratory experiment test data regarding the relative effect of racemic flurbiprofen to its individual enantiomers, R-flurbiprofen flurbiprofen (“R-FB”) and S-flurbipofen (“S-FB”), on the in vitro proliferation of a cancerous human skin cell line. For the underlying experiment, the non-pigmented human skin cancer cell line MM96L was studied in vitro utilizing the MTS colorimetric assay to assess cell proliferation. DNA fragmentation assays, acridine orange staining and flow cytometry were also utilized to assess apoptosis and cell cycle effects. […] An important finding was that there was no difference between the enantiomers of flurbiprofen in their anti-proliferative potency, despite the fact that only the S-isomer was capable of reducing COX activity.
Further experiments similar to that discussed above with respect to FIG. 4 were conducted to assess the anti-proliferative effects of other NSAIDs on human skin cells. […] These values are similar to the IC50 vales encountered for flurbiprofen.

## CC(C(=O)O)c1ccc(-c2ccccc2)c(F)c1 (racemic) [racemic flurbiprofen, flurbiprofen]
[1]; 0.5% w/v topical in 70% ethanol, UV 5 days a week
  DP50 (time for 50% of mice within the group to develop at least one papilloma): 17 weeks
[1]; 0.5% w/v topical
  animals that had developed at least one tumour at the end of the study: 45%
[1]; 1% and 2% treatment groups, representative animals
  skin appearance at completion of week 28 (FIG. 3c, 3d) vs vehicle animal: reduction in tumours and ulcers
[1]; 1% w/v topical in 70% ethanol, UV 5 days a week
  DP50 (time for 50% of mice within the group to develop at least one papilloma): 17 weeks
[1]; 1.0% w/v topical
  animals that had developed at least one tumour at the end of the study: 25%
[1]; 2% w/v topical in 70% ethanol, UV 5 days a week
  DP50 (time for 50% of mice within the group to develop at least one papilloma): 17.5 weeks
[1]; 2.0% w/v topical
  animals that had developed at least one tumour at the end of the study: 25%
[1]; 3% w/v topical, initial treatment (until week 10)
  adverse effects in the animals: adverse effects (such as lethargy, dehydration, and diarrhoea)
[1]; 3-2% w/v topical (3%, then 2% from week 10)
  DP50 (time for 50% of mice within the group to develop at least one papilloma): 18.5 weeks
[1]; 3-2% w/v topical
  animals that had developed at least one tumour at the end of the study: 10%
[1]; all concentrations up to and including 2% topical, 28 weeks
  adverse effects / pathology in the animals: no signs of adverse effects
[1]; all treatment groups 0.5-3-2% w/v, ANOVA/Scheffe
  papilloma/tumour yield (average number per animal) vs control over time (FIG. 1): statistically significant from week 13
[1]; highest concentration (3-2% w/v) vs vehicle control
  reduction in the number of animals that developed skin tumours compared with control group: greater than 80%
[1]; papilloma/tumour incidence compared between the two subgroups
  protection against photo-carcinogenesis, application one hour before vs one hour after UV light: superior protection
[2]
  effect on proliferation rate (FIG. 4): inhibit the proliferation rate
  apoptosis: induce apoptosis

## C[C@@H](C(=O)O)c1ccc(-c2ccccc2)c(F)c1 [R-FB, R-flurbiprofen]
Cyclooxygenase (COX)
  COX inhibitory activity: low COX inhibition
[2]
  difference between the enantiomers in anti-proliferative potency: no difference
  effect on proliferation rate (FIG. 4): inhibit the proliferation rate
  apoptosis: induce apoptosis

## CC(C)Cc1ccc([C@@H](C)C(=O)O)cc1 [R-ibuprofen]
Human skin cells
  IC50: 1.49 mM

## C[C@H](C(=O)O)c1ccc(-c2ccccc2)c(F)c1 [S-FB, S-flurbiprofen]
Cyclooxygenase (COX)
  COX inhibitory activity: can inhibit cyclooxygenase
[2]
  difference between the enantiomers in anti-proliferative potency: no difference
  effect on proliferation rate (FIG. 4): inhibit the proliferation rate
  apoptosis: induce apoptosis

## CC(C)Cc1ccc([C@H](C)C(=O)O)cc1 [S-ibuprofen]
Human skin cells
  IC50: 1.5 mM

## CC(=O)Oc1ccccc1C(=O)O [aspirin]
Human skin cells
  IC50: 0.97 to 5.53 mM

## CC1=C(CC(=O)O)c2cc(F)ccc2/C1=C\c1ccc([S+](C)[O-])cc1 (stereo not shown) [sulindac]
Human skin cells
  IC50: 1.03 to 2.16 mM
